Results: ChEMBL document CHEMBL1201862, “PubChem BioAssay data set” (2004)
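Method: 48-hour compound exposure of cells in 96-well plates, five concentrations, linear interpolation of endpoints. GI50 = concentration required for 50% inhibition of growth.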 The source made the active and inactive calls. No stated cut-off is given here; in the data, active = GI50 up to about 1.1 µM and inactive = higher.

Columns and labels:
Assay in all cases: inhibition of tumour cell growth, NCI panel, 48 h
786-0 = system: 786-0
A498 = system: A498
COLO 205 = system: COLO 205
HCT-15 = system: HCT-15
HOP-62 = system: HOP-62
K562 = system: K562
KM12 = system: KM12
MDA-MB-435 = system: MDA-MB-435
Malme-3M = system: Malme-3M
NCI-H23 = system: NCI-H23
NCI-H522 = system: NCI-H522
NCI/ADR-RES = system: NCI/ADR-RES
PC-3 = system: PC-3
SF-268 = system: SF-268
SK-MEL-28 = system: SK-MEL-28
SN12C = system: SN12C
T47D = system: T47D
U-251 = system: U-251
UACC-257 = system: UACC-257
UO-31 = system: UO-31

Row | Structure (SMILES) | GI50 (786-0) | GI50 (A498) | GI50 (COLO 205) | GI50 (HCT-15) | GI50 (HOP-62) | GI50 (K562) | GI50 (KM12) | GI50 (MDA-MB-435) | GI50 (Malme-3M) | GI50 (NCI-H23) | GI50 (NCI-H522) | GI50 (NCI/ADR-RES) | GI50 (PC-3) | GI50 (SF-268) | GI50 (SK-MEL-28) | GI50 (SN12C) | GI50 (T47D) | GI50 (U-251) | GI50 (UACC-257) | GI50 (UO-31)
1 | CC(C)(C)c1ccc(-c2nnc(SCc3ccc(Cl)cc3)n2-c2cccc(C(F)(F)F)c2)cc1 | 13.9 µM (inactive) | 31.1 µM (inactive) | 8.83 µM (inactive) | 8.73 µM | 34.3 µM (inactive) | 4.25 µM (inactive) | 8.2 µM (inactive) | 11.9 µM (inactive) | 29.4 µM (inactive) | 10.9 µM (inactive) | 4.39 µM (inactive) | 12.4 µM (inactive) | 6.98 µM (inactive) | 25 µM (inactive) | > 78.9 µM (inactive) | 4.24 µM (inactive) | 5.08 µM (inactive) | 8.85 µM (inactive) | 9.95 µM (inactive) | 11.6 µM (inactive)
2 | CCN(CC)/C(Sc1ccccc1)=C(\C(Cl)=C(Cl)Cl)[N+](=O)[O-] | 18 µM (inactive) | 21.1 µM (inactive) | 16.4 µM (inactive) | 14.9 µM | 23.5 µM (inactive) | 10.8 µM (inactive) | 17.7 µM (inactive) | 13.5 µM (inactive) | 18 µM (inactive) | 13.7 µM (inactive) | 12.6 µM (inactive) | 24.9 µM (inactive) | 17.2 µM (inactive) | 21.4 µM (inactive) | 17.9 µM (inactive) | 17.9 µM (inactive) | 17.8 µM (inactive) | – | 19.1 µM (inactive) | 14.8 µM (inactive)
3 | Nc1nnc2oc3ccc4ccccc4c3cc1-2 | 34 µM (inactive) | 24.6 µM (inactive) | 23.6 µM (inactive) | 28 µM | > 100 µM (inactive) | 37.5 µM (inactive) | 29.7 µM (inactive) | 24.3 µM (inactive) | 23 µM (inactive) | 42.8 µM (inactive) | 24.4 µM (inactive) | 30.9 µM (inactive) | 32.7 µM (inactive) | 34 µM (inactive) | 39.9 µM (inactive) | 22.9 µM (inactive) | 11.4 µM (inactive) | 35.9 µM (inactive) | 28.2 µM (inactive) | 32 µM (inactive)
4 | CC/C(Cl)=N\OC(=O)Nc1ccc(OC)cc1 | 1.65 µM (inactive) | 18.2 µM (inactive) | 2.11 µM (inactive) | 1.6 µM | 16.5 µM (inactive) | 1.98 µM (inactive) | 15.1 µM (inactive) | 8.04 µM (inactive) | 1.84 µM (inactive) | 15.4 µM (inactive) | 0.847 µM (active) | 6.17 µM (inactive) | 15.9 µM (inactive) | 14.3 µM (inactive) | 6.71 µM (inactive) | 6.55 µM (inactive) | 5.89 µM (inactive) | 19.5 µM (inactive) | 15.7 µM (inactive) | 7.94 µM (inactive)
5 | CCOC(=O)c1ccc(Nc2nc3ccc(C(F)(F)F)cc3nc2C(=O)OCC)cc1 | > 100 µM (inactive) | > 100 µM (inactive) | > 100 µM (inactive) | > 100 µM | 49.2 µM (inactive) | > 100 µM (inactive) | > 100 µM (inactive) | > 100 µM (inactive) | > 100 µM (inactive) | > 100 µM (inactive) | > 100 µM (inactive) | > 100 µM (inactive) | > 100 µM (inactive) | > 100 µM (inactive) | > 100 µM (inactive) | > 100 µM (inactive) | > 100 µM (inactive) | > 100 µM (inactive) | > 100 µM (inactive) | > 100 µM (inactive)
6 | CCOC(=O)C1(C#N)OC(=O)c2cnccc21 (stereo not drawn) | > 100 µM (inactive) | > 100 µM (inactive) | > 100 µM (inactive) | > 100 µM | – | > 100 µM (inactive) | > 100 µM (inactive) | > 100 µM (inactive) | > 100 µM (inactive) | > 100 µM (inactive) | > 100 µM (inactive) | > 100 µM (inactive) | > 100 µM (inactive) | > 100 µM (inactive) | > 100 µM (inactive) | > 100 µM (inactive) | > 100 µM (inactive) | > 100 µM (inactive) | > 100 µM (inactive) | > 100 µM (inactive)
7 | O=[N+]([O-])c1ccc(O)c(/C=N/NC(=S)N2CCCCC2)c1 | 1.84 µM (inactive) | 9.12 µM (inactive) | 2.38 µM (inactive) | 1.39 µM | 5.74 µM (inactive) | 4.95 µM (inactive) | 3.59 µM (inactive) | 7.43 µM (inactive) | 1.64 µM (inactive) | 3.61 µM (inactive) | 3.52 µM (inactive) | 1.59 µM (inactive) | 7.48 µM (inactive) | 2.45 µM (inactive) | 3.71 µM (inactive) | 3.13 µM (inactive) | 6.18 µM (inactive) | 3.53 µM (inactive) | 7.16 µM (inactive) | 0.91 µM (active)
